Measurements taken from ChEMBL document CHEMBL1201862, “PubChem BioAssay data set” (2004).
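A five-concentration, 48-hour dose response in 96-well plates underlies each endpoint, interpolated linearly between surrounding concentrations. At the GI50, growth is halved.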 Calls of active or inactive are those of the source. Rule as the data show it: active = GI50 up to about 1.1 µM and inactive = higher.

Assays:
Experiment in all cases: NCI tumour cell line growth inhibition, 48 h
786-0 = system: 786-0
A498 = system: A498
A549 = system: A549
ACHN = system: ACHN
BT-549 = system: BT-549
CAKI-1 = system: CAKI-1
CCRF-CEM = system: CCRF-CEM
COLO 205 = system: COLO 205
DU-145 = system: DU-145
EKVX = system: EKVX
HCC 2998 = system: HCC 2998
HCT-116 = system: HCT-116
HCT-15 = system: HCT-15
HL-60 = system: HL-60
HOP-62 = system: HOP-62
HOP-92 = system: HOP-92
HT-29 = system: HT-29
Hs-578T = system: Hs-578T
IGROV-1 = system: IGROV-1
K562 = system: K562
KM12 = system: KM12
LOX IMVI = system: LOX IMVI
M14 = system: M14
MCF7 = system: MCF7
MDA-MB-231 = system: MDA-MB-231
MDA-MB-435 = system: MDA-MB-435
MDA-N = system: MDA-N
MOLT-4 = system: MOLT-4
Malme-3M = system: Malme-3M
NCI-H226 = system: NCI-H226
NCI-H23 = system: NCI-H23
NCI-H460 = system: NCI-H460
NCI-H522 = system: NCI-H522
NCI/ADR-RES = system: NCI/ADR-RES
OVCAR-3 = system: OVCAR-3
OVCAR-4 = system: OVCAR-4
OVCAR-5 = system: OVCAR-5
OVCAR-8 = system: OVCAR-8
PC-3 = system: PC-3
RPMI-8226 = system: RPMI-8226
RXF 393 = system: RXF 393
SF-268 = system: SF-268
SF-295 = system: SF-295
SF-539 = system: SF-539
SK-MEL-28 = system: SK-MEL-28
SK-MEL-2 = system: SK-MEL-2
SK-MEL-5 = system: SK-MEL-5
SK-OV-3 = system: SK-OV-3
SN12C = system: SN12C
SNB-19 = system: SNB-19
SNB-75 = system: SNB-75
SR = system: SR
SW-620 = system: SW-620
T47D = system: T47D
TK-10 = system: TK-10
U-251 = system: U-251
UACC-257 = system: UACC-257
UACC-62 = system: UACC-62
UO-31 = system: UO-31

CN1CCCC(C(=O)OCC(=O)C2(O)CCC3C4CCC5=CC(=O)CCC5(C)C4C(O)CC32C)C1 (stereo not drawn)
GI50 (786-0): 4.2 µM (inactive)
GI50 (A498): 16.4 µM (inactive)
GI50 (A549): 16.4 µM (inactive)
GI50 (ACHN): 17.9 µM (inactive)
GI50 (BT-549): 16.7 µM (inactive)
GI50 (CAKI-1): 24.2 µM (inactive)
GI50 (CCRF-CEM): 4.9 µM (inactive)
GI50 (COLO 205): 18 µM (inactive)
GI50 (DU-145): 18.7 µM (inactive)
GI50 (EKVX): 17.1 µM (inactive)
GI50 (HCC 2998): 7.89 µM (inactive)
GI50 (HCT-116): 8.97 µM (inactive)
GI50 (HCT-15): 18.7 µM
GI50 (HL-60): 3.69 µM (inactive)
GI50 (HOP-62): 14.6 µM (inactive)
GI50 (HOP-92): 50.9 µM (inactive)
GI50 (HT-29): 10.8 µM (inactive)
GI50 (Hs-578T): 35.3 µM (inactive)
GI50 (IGROV-1): 23.4 µM (inactive)
GI50 (K562): 9.12 µM (inactive)
GI50 (KM12): 25.2 µM (inactive)
GI50 (LOX IMVI): 10.9 µM (inactive)
GI50 (M14): 23.2 µM (inactive)
GI50 (MCF7): 12.6 µM (inactive)
GI50 (MDA-MB-231): 4.32 µM (inactive)
GI50 (MDA-MB-435): 12.6 µM (inactive)
GI50 (MDA-N): 10.7 µM (inactive)
GI50 (MOLT-4): 18.7 µM (inactive)
GI50 (Malme-3M): 17 µM (inactive)
GI50 (NCI-H226): 17.1 µM (inactive)
GI50 (NCI-H23): 20.5 µM (inactive)
GI50 (NCI-H460): 11.5 µM (inactive)
GI50 (NCI-H522): 17.3 µM (inactive)
GI50 (NCI/ADR-RES): 20 µM (inactive)
GI50 (OVCAR-3): 17 µM (inactive)
GI50 (OVCAR-4): 13.4 µM (inactive)
GI50 (OVCAR-5): 18.1 µM (inactive)
GI50 (OVCAR-8): 15 µM (inactive)
GI50 (PC-3): 11.4 µM (inactive)
GI50 (RPMI-8226): 4.23 µM (inactive)
GI50 (RXF 393): 8.49 µM (inactive)
GI50 (SF-268): 20.9 µM (inactive)
GI50 (SF-295): 19.9 µM (inactive)
GI50 (SF-539): 2.12 µM (inactive)
GI50 (SK-MEL-28): 17.7 µM (inactive)
GI50 (SK-MEL-2): 19.5 µM (inactive)
GI50 (SK-MEL-5): 19.1 µM (inactive)
GI50 (SK-OV-3): 16.3 µM (inactive)
GI50 (SN12C): 8.73 µM (inactive)
GI50 (SNB-19): 8.05 µM (inactive)
GI50 (SNB-75): 4.85 µM (inactive)
GI50 (SR): 1.96 µM (inactive)
GI50 (SW-620): 6.27 µM (inactive)
GI50 (T47D): 10.3 µM (inactive)
GI50 (TK-10): 12.5 µM (inactive)
GI50 (U-251): 4.29 µM (inactive)
GI50 (UACC-257): 18.3 µM (inactive)
GI50 (UACC-62): 18.1 µM (inactive)
GI50 (UO-31): 8.11 µM (inactive)

C/C=C/[C@@H](C(=O)OC)N1C(=O)c2ccccc2[C@H]1O
GI50 (786-0): > 100 µM (inactive)
GI50 (A498): > 100 µM (inactive)
GI50 (A549): > 100 µM (inactive)
GI50 (ACHN): > 100 µM (inactive)
GI50 (BT-549): > 100 µM (inactive)
GI50 (CAKI-1): > 100 µM (inactive)
GI50 (CCRF-CEM): > 100 µM (inactive)
GI50 (COLO 205): > 100 µM (inactive)
GI50 (DU-145): > 100 µM (inactive)
GI50 (EKVX): > 100 µM (inactive)
GI50 (HCC 2998): > 100 µM (inactive)
GI50 (HCT-116): > 100 µM (inactive)
GI50 (HCT-15): > 100 µM
GI50 (HL-60): > 100 µM (inactive)
GI50 (HOP-62): > 100 µM (inactive)
GI50 (HOP-92): > 100 µM (inactive)
GI50 (HT-29): > 100 µM (inactive)
GI50 (Hs-578T): > 100 µM (inactive)
GI50 (IGROV-1): > 100 µM (inactive)
GI50 (K562): > 100 µM (inactive)
GI50 (KM12): > 100 µM (inactive)
GI50 (LOX IMVI): > 100 µM (inactive)
GI50 (M14): > 100 µM (inactive)
GI50 (MCF7): > 100 µM (inactive)
GI50 (MDA-MB-231): > 100 µM (inactive)
GI50 (MDA-MB-435): > 100 µM (inactive)
GI50 (MDA-N): > 100 µM (inactive)
GI50 (MOLT-4): > 100 µM (inactive)
GI50 (Malme-3M): > 100 µM (inactive)
GI50 (NCI-H226): > 100 µM (inactive)
GI50 (NCI-H23): > 100 µM (inactive)
GI50 (NCI-H460): > 100 µM (inactive)
GI50 (NCI-H522): > 100 µM (inactive)
GI50 (NCI/ADR-RES): > 100 µM (inactive)
GI50 (OVCAR-3): > 100 µM (inactive)
GI50 (OVCAR-4): > 100 µM (inactive)
GI50 (OVCAR-5): > 100 µM (inactive)
GI50 (OVCAR-8): > 100 µM (inactive)
GI50 (PC-3): > 100 µM (inactive)
GI50 (RPMI-8226): > 100 µM (inactive)
GI50 (RXF 393): > 100 µM (inactive)
GI50 (SF-268): > 100 µM (inactive)
GI50 (SF-295): > 100 µM (inactive)
GI50 (SF-539): > 100 µM (inactive)
GI50 (SK-MEL-28): > 100 µM (inactive)
GI50 (SK-MEL-2): > 100 µM (inactive)
GI50 (SK-MEL-5): > 100 µM (inactive)
GI50 (SK-OV-3): > 100 µM (inactive)
GI50 (SN12C): > 100 µM (inactive)
GI50 (SNB-19): > 100 µM (inactive)
GI50 (SNB-75): > 100 µM (inactive)
GI50 (SR): > 100 µM (inactive)
GI50 (SW-620): > 100 µM (inactive)
GI50 (T47D): > 100 µM (inactive)
GI50 (TK-10): > 100 µM (inactive)
GI50 (U-251): > 100 µM (inactive)
GI50 (UACC-257): > 100 µM (inactive)
GI50 (UACC-62): > 100 µM (inactive)
GI50 (UO-31): > 100 µM (inactive)
